The text below walks through data of patent US8680094B2, “1, 4-benzoxazine compounds and derivatives thereof as therapeutic drugs for the treatment of neurodegenerative conditions” (Board of Regents, The University of Texas System, priority 2008, dated 2014).

Test in all cases: In vitro kinase activity
What all share (format): biochemical

One test has as its target GSK3β (Homo sapiens, UniProt P49841). The note with it: percentage of control assays without compound, mean of duplicate. As to the method:
(§1) To better understand the mechanism of action of the compounds of the present invention, but in no way a limitation; the effects of HSB-13 and ASK-2a on 20 different kinases were examined in vitro. At 500 nM concentration, ASK-2a inhibited the kinase activities of GSK3α, GSK3β, p38α, p38β, JNK3, MLK3, and B-Raf substantially. […] As described above, ASK-2a protects cerebellar granule neurons against LK-induced death but is ineffective against HCA-induced toxicity of HT-22 cells. In contrast, HSB-13 is protective in both paradigms. […] Previous studies have established that CDK inhibitors can protect neurons against a number of different apoptotic stimuli.
(§2) The activity of each kinase was measured in vitro in the presence either 100 nM or 500 nM ASK-2a. Kinase activity is expressed as a percentage of that in control assays (without ASK-2a). The values are mean of assays performed in duplicate. Substantial inhibition of kinase activity (>20%) is in bold type.
(§3) Table 3: Effect of HSB-13 at 500 nM on 20 different kinases measured in vitro. Kinase activity is expressed as a percentage of that in control assays (without HSB-13). The values are mean of assays performed in duplicate. Substantial inhibition of kinase activity (>20%) is in bold type.

The next test deals with JNK3 (Homo sapiens, UniProt P53779). The note with it: percentage of control assays without compound, mean of duplicate. As to the method:
as §1, §2, §3

The target in the next test is MLK3 (Homo sapiens, UniProt Q16584). To be noted: 100 nM, percentage of control assays without compound, mean of duplicate. As to the method: as §1, §2, §3
Another test concerns the target DAPK1 (Homo sapiens, UniProt P53355). The note with it: percentage of control assays without compound, mean of duplicate. Here is the method:
as §1, §2, §3

In the next test the target is GSK3α (Homo sapiens, UniProt P49840). To be noted: percentage of control assays without compound, mean of duplicate. Here is the method:
as §1, §2, §3

In another test the target is T1, ASK1 (Homo sapiens, UniProt Q99683).
T1 sequence (Q99683 1-1374): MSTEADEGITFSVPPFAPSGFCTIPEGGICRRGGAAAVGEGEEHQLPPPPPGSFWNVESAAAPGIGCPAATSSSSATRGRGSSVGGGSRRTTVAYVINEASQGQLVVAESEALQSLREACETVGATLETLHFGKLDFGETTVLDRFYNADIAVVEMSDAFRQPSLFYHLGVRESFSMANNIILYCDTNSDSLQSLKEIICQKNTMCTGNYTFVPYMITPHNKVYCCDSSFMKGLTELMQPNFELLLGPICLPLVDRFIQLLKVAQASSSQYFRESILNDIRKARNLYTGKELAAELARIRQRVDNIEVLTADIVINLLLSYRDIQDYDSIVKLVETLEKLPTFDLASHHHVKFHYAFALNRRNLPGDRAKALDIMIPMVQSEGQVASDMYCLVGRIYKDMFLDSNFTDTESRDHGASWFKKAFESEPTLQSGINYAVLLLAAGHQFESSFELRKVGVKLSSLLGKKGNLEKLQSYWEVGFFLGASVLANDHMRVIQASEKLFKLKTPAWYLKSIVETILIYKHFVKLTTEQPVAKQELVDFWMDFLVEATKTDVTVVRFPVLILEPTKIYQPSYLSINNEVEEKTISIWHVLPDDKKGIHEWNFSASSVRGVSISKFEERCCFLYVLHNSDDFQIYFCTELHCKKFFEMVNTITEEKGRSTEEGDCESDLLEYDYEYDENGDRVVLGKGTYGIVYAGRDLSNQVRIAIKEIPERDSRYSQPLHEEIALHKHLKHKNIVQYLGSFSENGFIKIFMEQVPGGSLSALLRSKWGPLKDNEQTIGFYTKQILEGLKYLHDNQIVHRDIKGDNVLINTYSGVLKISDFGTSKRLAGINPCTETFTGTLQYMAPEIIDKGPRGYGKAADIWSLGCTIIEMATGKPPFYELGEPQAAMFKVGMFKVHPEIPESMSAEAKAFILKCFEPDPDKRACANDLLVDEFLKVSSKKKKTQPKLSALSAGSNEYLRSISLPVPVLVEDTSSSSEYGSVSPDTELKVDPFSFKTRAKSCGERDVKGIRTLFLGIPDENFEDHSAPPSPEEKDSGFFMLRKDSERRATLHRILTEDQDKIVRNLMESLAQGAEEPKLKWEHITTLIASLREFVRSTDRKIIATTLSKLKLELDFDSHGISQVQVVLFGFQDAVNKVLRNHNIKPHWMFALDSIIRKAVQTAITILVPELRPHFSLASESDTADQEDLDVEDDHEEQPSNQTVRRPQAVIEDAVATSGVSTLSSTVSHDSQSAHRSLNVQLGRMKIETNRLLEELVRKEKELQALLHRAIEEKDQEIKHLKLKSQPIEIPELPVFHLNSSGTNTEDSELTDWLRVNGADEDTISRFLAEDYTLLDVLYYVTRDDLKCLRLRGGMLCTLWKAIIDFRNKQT
To be noted: percentage of control assays without compound, mean of duplicate. Here is the method:
as §1, §2, §3

For another test, the target named is CDK1/Cyclin B1 (Homo sapiens, UniProt P06493). The note with it: percentage of control assays without compound, mean of duplicate. As to the method: as §1, §2, §3
Setting [1] is: 100 nM, listed as ASK2a, 0.1 µM.

GSK3β, sequence (P49841 whole entry, species assumed): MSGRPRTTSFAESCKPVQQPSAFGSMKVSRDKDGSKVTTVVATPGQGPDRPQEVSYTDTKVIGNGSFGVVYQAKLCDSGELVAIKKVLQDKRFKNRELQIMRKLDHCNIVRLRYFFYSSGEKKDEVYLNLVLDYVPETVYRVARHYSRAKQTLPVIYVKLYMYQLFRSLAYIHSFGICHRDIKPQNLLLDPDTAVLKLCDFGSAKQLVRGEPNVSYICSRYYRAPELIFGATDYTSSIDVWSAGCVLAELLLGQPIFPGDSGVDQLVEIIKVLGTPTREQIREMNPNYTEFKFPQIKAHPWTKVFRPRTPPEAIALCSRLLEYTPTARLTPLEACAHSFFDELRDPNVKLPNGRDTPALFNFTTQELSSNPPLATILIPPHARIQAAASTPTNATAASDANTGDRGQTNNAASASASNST
GSK3α, sequence (P49840 whole entry, species assumed): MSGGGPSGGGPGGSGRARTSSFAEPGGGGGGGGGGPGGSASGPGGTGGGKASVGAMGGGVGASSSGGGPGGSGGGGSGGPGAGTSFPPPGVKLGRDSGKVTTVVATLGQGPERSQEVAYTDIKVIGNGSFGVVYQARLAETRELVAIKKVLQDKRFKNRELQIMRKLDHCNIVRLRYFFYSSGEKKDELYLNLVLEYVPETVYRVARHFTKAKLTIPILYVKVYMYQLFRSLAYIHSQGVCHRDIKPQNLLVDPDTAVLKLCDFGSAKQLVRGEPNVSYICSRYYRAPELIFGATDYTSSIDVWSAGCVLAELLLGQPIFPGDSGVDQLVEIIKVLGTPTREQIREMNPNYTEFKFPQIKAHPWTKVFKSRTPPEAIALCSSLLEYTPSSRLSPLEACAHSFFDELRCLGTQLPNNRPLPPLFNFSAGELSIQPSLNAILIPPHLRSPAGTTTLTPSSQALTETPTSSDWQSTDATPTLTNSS
MLK3, sequence (Q16584 whole entry, species assumed): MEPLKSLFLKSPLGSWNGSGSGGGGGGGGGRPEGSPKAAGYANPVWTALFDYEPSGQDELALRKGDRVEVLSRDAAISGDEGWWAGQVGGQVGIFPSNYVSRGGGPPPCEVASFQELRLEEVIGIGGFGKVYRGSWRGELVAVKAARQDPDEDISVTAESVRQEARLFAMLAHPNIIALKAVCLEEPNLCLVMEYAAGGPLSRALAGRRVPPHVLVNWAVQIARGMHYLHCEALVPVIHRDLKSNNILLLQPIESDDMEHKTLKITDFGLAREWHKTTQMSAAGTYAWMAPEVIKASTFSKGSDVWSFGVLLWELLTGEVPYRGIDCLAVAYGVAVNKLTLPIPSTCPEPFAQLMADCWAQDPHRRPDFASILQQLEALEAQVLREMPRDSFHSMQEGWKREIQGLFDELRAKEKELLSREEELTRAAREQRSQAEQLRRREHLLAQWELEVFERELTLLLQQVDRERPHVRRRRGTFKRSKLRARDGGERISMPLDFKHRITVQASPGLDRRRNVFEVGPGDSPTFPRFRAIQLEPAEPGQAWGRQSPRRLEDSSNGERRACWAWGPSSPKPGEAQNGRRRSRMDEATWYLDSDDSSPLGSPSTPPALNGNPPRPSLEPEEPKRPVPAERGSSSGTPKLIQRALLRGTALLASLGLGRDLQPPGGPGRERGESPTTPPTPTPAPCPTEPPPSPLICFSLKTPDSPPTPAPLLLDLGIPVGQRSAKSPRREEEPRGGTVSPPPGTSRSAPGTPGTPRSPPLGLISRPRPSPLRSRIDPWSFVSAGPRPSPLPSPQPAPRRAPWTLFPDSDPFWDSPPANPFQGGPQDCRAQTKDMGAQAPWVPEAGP
DAPK1, sequence (P53355 whole entry, species assumed): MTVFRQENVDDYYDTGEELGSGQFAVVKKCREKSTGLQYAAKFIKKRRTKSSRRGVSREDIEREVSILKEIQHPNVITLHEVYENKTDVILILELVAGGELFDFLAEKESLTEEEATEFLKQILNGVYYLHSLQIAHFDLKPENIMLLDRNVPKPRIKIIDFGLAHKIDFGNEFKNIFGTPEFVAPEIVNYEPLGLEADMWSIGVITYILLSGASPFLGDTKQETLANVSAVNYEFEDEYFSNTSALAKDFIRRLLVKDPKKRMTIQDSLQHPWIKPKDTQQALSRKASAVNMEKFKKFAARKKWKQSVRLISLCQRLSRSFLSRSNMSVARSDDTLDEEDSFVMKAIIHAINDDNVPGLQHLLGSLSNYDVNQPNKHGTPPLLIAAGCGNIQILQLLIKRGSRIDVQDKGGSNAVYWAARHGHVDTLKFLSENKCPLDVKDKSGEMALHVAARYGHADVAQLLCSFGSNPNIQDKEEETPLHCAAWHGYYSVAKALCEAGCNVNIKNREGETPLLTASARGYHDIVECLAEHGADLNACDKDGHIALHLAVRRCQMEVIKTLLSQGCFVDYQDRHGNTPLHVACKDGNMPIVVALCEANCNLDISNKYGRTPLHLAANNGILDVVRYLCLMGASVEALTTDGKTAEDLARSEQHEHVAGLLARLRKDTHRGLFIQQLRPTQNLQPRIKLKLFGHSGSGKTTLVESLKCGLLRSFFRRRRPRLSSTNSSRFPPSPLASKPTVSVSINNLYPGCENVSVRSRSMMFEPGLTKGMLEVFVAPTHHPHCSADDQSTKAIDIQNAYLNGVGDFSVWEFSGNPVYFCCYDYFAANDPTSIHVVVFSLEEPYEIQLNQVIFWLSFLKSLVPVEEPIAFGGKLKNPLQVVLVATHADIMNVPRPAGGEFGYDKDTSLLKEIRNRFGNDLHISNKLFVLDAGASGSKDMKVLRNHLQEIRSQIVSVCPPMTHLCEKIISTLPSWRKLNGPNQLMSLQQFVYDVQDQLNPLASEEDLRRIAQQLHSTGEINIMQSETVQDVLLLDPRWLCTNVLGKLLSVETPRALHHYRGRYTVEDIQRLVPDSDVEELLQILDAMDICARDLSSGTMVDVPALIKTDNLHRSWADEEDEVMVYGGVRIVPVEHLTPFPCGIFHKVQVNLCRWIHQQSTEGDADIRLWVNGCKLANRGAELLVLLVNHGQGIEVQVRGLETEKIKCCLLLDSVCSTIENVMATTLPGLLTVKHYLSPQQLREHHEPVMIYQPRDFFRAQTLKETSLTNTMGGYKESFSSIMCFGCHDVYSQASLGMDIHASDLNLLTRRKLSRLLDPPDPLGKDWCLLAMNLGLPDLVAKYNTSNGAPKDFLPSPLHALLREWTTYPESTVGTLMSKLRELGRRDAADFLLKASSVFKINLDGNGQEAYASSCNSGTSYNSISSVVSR
JNK3, sequence (P53779 whole entry, species assumed): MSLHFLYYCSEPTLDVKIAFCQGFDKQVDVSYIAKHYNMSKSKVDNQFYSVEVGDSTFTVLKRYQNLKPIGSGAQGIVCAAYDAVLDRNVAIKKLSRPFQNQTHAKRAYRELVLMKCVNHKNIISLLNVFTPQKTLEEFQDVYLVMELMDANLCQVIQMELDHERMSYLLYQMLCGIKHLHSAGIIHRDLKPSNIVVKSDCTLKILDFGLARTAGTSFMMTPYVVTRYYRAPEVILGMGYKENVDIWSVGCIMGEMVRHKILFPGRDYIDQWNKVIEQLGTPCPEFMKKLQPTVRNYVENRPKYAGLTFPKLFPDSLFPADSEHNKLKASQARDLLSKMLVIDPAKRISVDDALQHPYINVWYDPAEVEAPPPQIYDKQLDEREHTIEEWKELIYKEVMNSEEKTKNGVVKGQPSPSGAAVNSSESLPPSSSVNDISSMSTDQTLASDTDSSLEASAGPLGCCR
CDK1/Cyclin B1, sequence (P06493 whole entry, species assumed): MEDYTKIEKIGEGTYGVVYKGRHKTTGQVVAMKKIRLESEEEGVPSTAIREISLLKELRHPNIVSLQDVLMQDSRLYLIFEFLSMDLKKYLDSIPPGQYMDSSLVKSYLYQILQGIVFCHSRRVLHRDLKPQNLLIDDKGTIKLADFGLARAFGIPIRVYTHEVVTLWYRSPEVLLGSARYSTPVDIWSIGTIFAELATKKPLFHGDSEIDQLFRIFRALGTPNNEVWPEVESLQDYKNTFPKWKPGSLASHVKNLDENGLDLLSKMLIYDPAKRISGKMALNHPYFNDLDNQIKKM
CDK1/Cyclin B1, sequence (P14635 whole entry partner, species assumed): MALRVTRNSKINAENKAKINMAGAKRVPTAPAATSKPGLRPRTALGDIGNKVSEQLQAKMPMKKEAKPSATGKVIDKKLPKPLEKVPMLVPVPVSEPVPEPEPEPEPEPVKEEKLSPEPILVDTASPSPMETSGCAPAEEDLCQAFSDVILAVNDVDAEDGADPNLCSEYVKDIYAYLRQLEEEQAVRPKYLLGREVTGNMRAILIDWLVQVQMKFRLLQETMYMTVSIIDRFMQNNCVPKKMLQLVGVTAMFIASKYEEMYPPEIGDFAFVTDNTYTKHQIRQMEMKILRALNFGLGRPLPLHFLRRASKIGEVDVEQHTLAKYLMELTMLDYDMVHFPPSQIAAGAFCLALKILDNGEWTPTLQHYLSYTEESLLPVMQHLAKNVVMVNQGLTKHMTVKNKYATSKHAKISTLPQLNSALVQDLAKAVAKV

Take `O=C1Nc2ccccc2OC1=Cc1cc(Br)c(O)c(Br)c1` [ASK-2a]: the “% ACTIVITY” value on GSK3β (100 nM, 0.1 µM) was 55%; on GSK3β (setting [1]), “inhibited efficiently”; at JNK3 (100 nM, 0.1 µM) it was 94%; on JNK3 (setting [1]) it was “inhibited efficiently”; on MLK3 (0.1 µM), 88%; at MLK3 (listed as ASK2a, 0.1 µM), “inhibited less efficiently”. Further, the “% ACTIVITY” value was 98% on DAPK1 (100 nM); 95% at DAPK1 (500 nM); 71% on GSK3α (100 nM, 0.1 µM); “inhibited efficiently” on GSK3α (setting [1]); 104% at ASK1 (100 nM); 97% at ASK1 (500 nM). Besides, the “% ACTIVITY” value on CDK1/Cyclin B1 (100 nM) was 91%; at CDK1/Cyclin B1 (500 nM) it was 98%.
On to `Nc1ccc2c(c1)NC(=O)/C(=C/c1cc(Br)c(O)c(Br)c1)O2` [HSB-13, (Z)-6-amino-2-(3,′5′-dibromo-4′-hydrozybenzylidene)-2H-benzo[b][1,4]oxazin-3(4H)-one], for which the “% ACTIVITY” value at GSK3β (500 nM) came out at 19%; on JNK3 (100 nM), 92%; at JNK3 (500 nM), 92%; at MLK3, 94%; on DAPK1 (100 nM), 96%; at DAPK1 (500 nM), 84%. Besides, the “% ACTIVITY” value at GSK3α (500 nM) stood at 23%; at ASK1 (100 nM), 104%; on ASK1 (500 nM), 95%; on CDK1/Cyclin B1 (100 nM) it was 90%.
